Read-outs that look alike come from different tables or passages of the source.
Biological target: T1, human M5 receptor (Homo sapiens, UniProt P08912)
T1 construct: expressed in transfected cells
T1 sequence (P08912 1-532): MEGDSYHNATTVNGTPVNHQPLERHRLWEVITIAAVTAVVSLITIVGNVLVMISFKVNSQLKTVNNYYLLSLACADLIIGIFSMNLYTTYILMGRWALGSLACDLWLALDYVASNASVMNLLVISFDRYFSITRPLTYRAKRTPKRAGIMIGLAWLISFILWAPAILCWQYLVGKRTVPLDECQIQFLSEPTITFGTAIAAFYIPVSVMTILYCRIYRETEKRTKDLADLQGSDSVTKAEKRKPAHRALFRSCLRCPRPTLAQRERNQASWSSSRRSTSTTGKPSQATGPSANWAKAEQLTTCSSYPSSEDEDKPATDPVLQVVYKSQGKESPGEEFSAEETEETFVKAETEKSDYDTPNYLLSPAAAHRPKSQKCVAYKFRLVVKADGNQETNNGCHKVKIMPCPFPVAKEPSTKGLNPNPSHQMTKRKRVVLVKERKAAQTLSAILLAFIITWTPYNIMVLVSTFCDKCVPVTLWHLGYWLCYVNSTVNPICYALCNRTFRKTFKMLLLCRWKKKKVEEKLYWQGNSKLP
Experiment: HTRF IP-One curve shift assay, M5
Type: cell-based
Experimental: HTRF IP-One assays were performed using frozen cell aliquots prepared from CHO-K1 cell lines stably expressing human M1, M3, or M5 receptors. Cells were frozen following typical cell freezing protocols. […] Dissociated cells were quenched in full media and collected by centrifugation at 290×g for 5 min. […] 1 mL aliquots of cells were dispensed into cryovial tubes and frozen in a controlled rate cryo-freezer container at −80° C. Cells were stored at −80° C. (or in liquid nitrogen if stored for at least six months) until the day of the assay.
On the day before the assay, frozen cells were rapidly thawed in a 37° C. water bath, brought up in 20 mL of full media, and collected via centrifugation at 290×g for 5 min. […] Next, […] of cells (10,000 cells/well) were dispensed into 384-well coming plates in triplicate. Cells were incubated overnight in a 37° C., 5% CO2 cell incubator.
Then, 2 μL of test compounds were added to the cells and incubated for 10 min at 37° C. in a 5% CO2 cell incubator. Next, 2 μL of diluted agonists serially diluted in assay buffer at 7× final assay concentration was added to assay plates. Finally, assay plates were incubated for two hours at 37° C. in a 5% CO2 cell incubator.
Six μL of IP-1 detection reagents (IP-One Gq HTRF kit, Cisbio Cat #62IPAPEJ) were dispensed to the cells. First, the plates were incubated for two hours at room temperature (IP-One detection reagents were made according to Cisbio protocol). Then, plates were read on an Envision plate reader following the Cisbio guidelines.
Raw data for all assays was transmitted directly from plate readers into the Beacon database for processing. All assay plates contained positive and negative control wells for data normalization and scaling. […] All control wells contained DMSO at a final assay concentration that matched the test compound wells.
Counts from the standard curve wells were used to generate a sigmoidal standard curve, which was used to transform the raw counts from each well on the plate (scaling control wells and compound wells) into a pmol/well IP1 value.

[1] = M5, Emraclidine concentration 0 nM
[2] = M5, Emraclidine concentration 41.2 nM, read-out: Emax
[3] = M5, Emraclidine concentration 123 nM, read-out: Emax
[4] = M5, Emraclidine concentration 370 nM, read-out: Emax
[5] = M5, Emraclidine concentration 1110 nM, read-out: Emax
[6] = M5, Emraclidine concentration 3330 nM, read-out: Emax
[7] = M5, Emraclidine concentration […], read-out: Emax
[8] = M5, MK-4710 concentration 41.2 nM, read-out: Emax
[9] = M5, MK-4710 concentration 123 nM, read-out: Emax
[10] = M5, MK-4710 concentration 370 nM, read-out: Emax
[11] = M5, MK-4710 concentration 1110 nM, read-out: Emax
[12] = M5, MK-4710 concentration 3330 nM, read-out: Emax
[13] = M5, MK-4710 concentration […], read-out: Emax

Row | Emax [1] [%] | Emax [2] [%] | Emax [3] [%] | Emax at […] [4] [%] | Emax [5] [%] | Emax [6] [%] | Emax at […] [7] [%] | τ (agonist pharmacology) (M5, M4 PAM Emraclidine) | τ (agonist pharmacology) (M5, M4 PAM MK-4710) | Emax (M5, MK-4710 concentration 0 nM) [%] | Emax [8] [%] | Emax [9] [%] | Emax at […] [10] [%] | Emax [11] [%] | Emax [12] [%] | EC50 [1] [nM] | α (cooperativity, affinity shift) (M5, M4 PAM Emraclidine) | β (cooperativity, efficacy shift) (M5, M4 PAM Emraclidine) | α (cooperativity, affinity shift) (M5, M4 PAM MK-4710) | β (cooperativity, efficacy shift) (M5, M4 PAM MK-4710) | SMILES | other results
1 | 41.68 | 45.4 | 62.7 | 62.4 | 69.3 | 72 | 44.1 | 0.1 | 0.0 | 53.95 | 62.5 | 65.7 | 68 | 69.6 | 82.2 | 121 | 1.0 | 4.5 | 2.2 | 1.9 | CCCCCOc1nsnc1C1=CCCCN1C [KTX-517, 3-(1-methyl-1,4,5,6-tetrahydropyridin-2-yl)-4-(pentyloxy)-1,2,5-thiadiazole] | EC50 (M5, Emraclidine concentration 41.2 nM): 110 nM; EC50 (M5, Emraclidine concentration 123 nM): 118 nM; EC50 (M5, Emraclidine concentration 370 nM): 161 nM; EC50 (M5, Emraclidine concentration 1110 nM): 243 nM; EC50 (M5, Emraclidine concentration 3330 nM): 153 nM; EC50 (M5, Emraclidine concentration […]): 111 nM; EC50 (M5, MK-4710 concentration 0 nM): 168 nM; Emax at […] [13]: 54.9%
2 | 63.6 | 71.8 | 68.8 | 67.4 | 66.9 | 71.9 | 67.1 | 0.0 | 0.1 | 81.82 | 78.3 | 78.8 | 76.6 | 69.7 | 77.3 | 403 | 10.6 | 1.1 | 1.4 | 0.8 | CCCCCCCOc1nsnc1C1=CCCCN1C [KTX-593, 3-(heptyloxy)-4-(1-methyl-1,4,5,6-tetrahydropyridin-2-yl)-1,2,5-thiadiazole] | EC50 (M5, MK-4710 concentration 0 nM): 245 nM; Emax at […] [13]: 69.7%
3 | 90.54 | 92.7 | 93.5 | 105 | 103 | 106 | 102 | 0.1 | 0.1 | 70.31 | 95.2 | 88.2 | 91.1 | 78.3 | 91.2 | 1370 | 1.0 | 0.5 | 1.0 | 1.4 | CC1OC2(CS1)CN1CCC2CC1 (stereo not shown) [cevimeline, Cevimeline, reference compound] | EC50 (M5, MK-4710 concentration 0 nM): 3720 nM; Emax at […] [13]: 97.3%

Row | SMILES | Emax [1] [%] | Emax [2] [%] | Emax [3] [%] | Emax at […] [4] [%] | Emax [5] [%] | Emax [6] [%] | Emax at […] [7] [%] | τ (agonist pharmacology) (M5, M4 PAM Emraclidine) | τ (agonist pharmacology) (M5, M4 PAM MK-4710) | Emax (M5, MK-4710 concentration 0 nM) [%] | Emax [8] [%] | Emax [9] [%] | Emax at […] [10] [%] | Emax [11] [%] | Emax [12] [%] | EC50 [1] [nM] | α (cooperativity, affinity shift) (M5, M4 PAM Emraclidine) | β (cooperativity, efficacy shift) (M5, M4 PAM Emraclidine) | α (cooperativity, affinity shift) (M5, M4 PAM MK-4710) | β (cooperativity, efficacy shift) (M5, M4 PAM MK-4710) | other results
4 | CCCCCCOc1nsnc1C1=CCCN(C)C1 [xanomeline, reference compound] | 81.14 | 78.5 | 84.2 | 89 | 81.9 | 79.5 | 79.4 | 0.1 | 0.0 | 77.91 | 87 | 86.9 | 92.9 | 78.6 | 83 | – | – | – | – | – | Emax at […]: 80%

Reference: patent publication US20250228832A1, “METHODS FOR TREATING DISORDERS AMELIORATED BY MUSCARINIC RECEPTOR ACTIVATION” (KARUNA THERAPEUTICS, INC., priority 2022, published 2025)
